From PubChem BioAssay AID588807 (The Scripps Research Institute Molecular Screening Center, 2011)
Calls of active or inactive are those of the source. No rule for the calls is given here.

What was measured:
Test in all cases: competitive ABPP of Abhd10 versus anti-targets – biochemical, fluorescence, gel-based, mouse proteome, selectivity assay for PME-1 inhibitor project, late-stage follow-up (AID 588807)
APEH = details: anti-target, stronger effect = higher value
Kiaa1363 = details: anti-target, stronger effect = higher value
Magl = details: anti-target, stronger effect = higher value
[1] = target: Monoacylglycerol lipase ABHD6 (Mus musculus) (UniProt Q8R2Y0); details: anti-target, stronger effect = higher value
[2] = target: Palmitoyl-protein thioesterase ABHD10, mitochondrial (Mus musculus) (UniProt Q6PE15); details: stronger effect = higher value
[3] = target: Prolyl endopeptidase (Mus musculus) (UniProt Q9QUR6); details: PREP, anti-target, stronger effect = higher value
Chain of Prolyl endopeptidase (Mus musculus) (Q9QUR6 whole entry, looked up): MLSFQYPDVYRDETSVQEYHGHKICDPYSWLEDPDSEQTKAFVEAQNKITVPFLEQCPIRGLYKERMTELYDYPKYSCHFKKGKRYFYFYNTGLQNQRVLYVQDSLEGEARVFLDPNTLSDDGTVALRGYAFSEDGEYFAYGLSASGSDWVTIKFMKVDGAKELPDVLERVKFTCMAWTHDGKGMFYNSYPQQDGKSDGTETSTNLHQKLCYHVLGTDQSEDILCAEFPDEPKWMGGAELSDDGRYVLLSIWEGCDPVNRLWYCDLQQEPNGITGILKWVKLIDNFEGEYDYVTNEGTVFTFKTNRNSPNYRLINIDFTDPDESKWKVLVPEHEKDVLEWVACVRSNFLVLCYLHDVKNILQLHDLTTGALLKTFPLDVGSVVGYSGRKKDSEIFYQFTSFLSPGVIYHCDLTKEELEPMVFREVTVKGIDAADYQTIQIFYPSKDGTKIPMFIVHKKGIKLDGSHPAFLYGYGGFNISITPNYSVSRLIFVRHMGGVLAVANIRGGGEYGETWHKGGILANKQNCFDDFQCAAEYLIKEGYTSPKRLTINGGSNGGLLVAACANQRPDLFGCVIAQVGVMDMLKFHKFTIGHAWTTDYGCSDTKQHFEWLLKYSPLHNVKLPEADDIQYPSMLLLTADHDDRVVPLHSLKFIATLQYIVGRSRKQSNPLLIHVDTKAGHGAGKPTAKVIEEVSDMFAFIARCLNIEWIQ

Chain of Monoacylglycerol lipase ABHD6 (Mus musculus) (Q8R2Y0 whole entry, looked up): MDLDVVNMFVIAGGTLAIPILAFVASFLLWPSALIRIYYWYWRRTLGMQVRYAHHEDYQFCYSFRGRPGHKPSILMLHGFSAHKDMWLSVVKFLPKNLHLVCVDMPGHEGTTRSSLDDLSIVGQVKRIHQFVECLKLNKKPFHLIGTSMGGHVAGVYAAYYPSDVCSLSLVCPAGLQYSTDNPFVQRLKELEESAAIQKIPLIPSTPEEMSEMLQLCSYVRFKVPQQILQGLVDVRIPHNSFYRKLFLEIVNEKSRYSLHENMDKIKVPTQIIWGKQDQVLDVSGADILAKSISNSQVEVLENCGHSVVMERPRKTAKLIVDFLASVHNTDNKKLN
Chain of Palmitoyl-protein thioesterase ABHD10, mitochondrial (Mus musculus) (Q6PE15 whole entry, looked up): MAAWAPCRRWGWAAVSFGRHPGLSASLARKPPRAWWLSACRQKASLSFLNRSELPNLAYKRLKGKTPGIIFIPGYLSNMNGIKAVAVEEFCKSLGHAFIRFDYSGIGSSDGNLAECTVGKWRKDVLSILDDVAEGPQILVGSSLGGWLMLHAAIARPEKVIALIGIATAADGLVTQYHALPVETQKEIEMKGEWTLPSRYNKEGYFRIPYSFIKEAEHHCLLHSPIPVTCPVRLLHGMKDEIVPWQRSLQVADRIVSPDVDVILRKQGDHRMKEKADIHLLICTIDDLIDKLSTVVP

inhibition (APEH; at 10 µM)	inhibition (Kiaa1363; at 10 µM)	inhibition (Magl; at 10 µM)	inhibition ([1]; at 10 µM)	inhibition ([2]; at 10 µM)	inhibition ([2]; inhibition, at 0.1 µM)	inhibition ([2]; inhibition, at 1 µM)	inhibition ([3]; at 10 µM)	inhibition (APEH; inhibition, at 1 µM)	inhibition (Kiaa1363; inhibition, at 1 µM)	inhibition ([1]; inhibition, at 0.1 µM)	inhibition ([1]; inhibition, at 1 µM)	inhibition ([3]; inhibition, at 1 µM)	inhibition ([3]; inhibition, at 0.1 µM)	inhibition (APEH; inhibition, at 0.1 µM)	inhibition (Magl; inhibition, at 0.1 µM)	Structure (SMILES)
0% (inactive)	25% (inactive)	60% (inactive)	55% (inactive)	100%	60%	95%	65% (inactive)									CCOC(=O)N1C(=O)[C@@](CC)(c2ccc(C)cc2)N1C(=O)OCC
70% (inactive)	25% (inactive)	45% (inactive)	65% (inactive)	100%	75%	100%	100% (inactive)					45%	20%			CCOC(=O)N1C(=O)[C@@](CC)(c2cccc(C)c2)N1C(=O)OCC
55% (inactive)	35% (inactive)	20% (inactive)	45% (inactive)	100% (inactive)	10%	95%	65% (inactive)					20%				C=CCOC(=O)N1C(=O)[C@@](CC)(c2cccc(C)c2)N1C(=O)OC
0% (inactive)	0% (inactive)	0% (inactive)	0% (inactive)	85% (inactive)		20%	0% (inactive)									CC[C@]1(c2cccc(C)c2)C(=O)N(C(=O)OC)N1C(=O)OC
0% (inactive)	0% (inactive)	0% (inactive)	0% (inactive)	20% (inactive)			10% (inactive)									CC[C@@]1(c2cccc(C)c2)C(=O)N(C(=O)OCC(Cl)(Cl)Cl)N1C(=O)OCC(Cl)(Cl)Cl
20% (inactive)	0% (inactive)	0% (inactive)	75% (inactive)	100% (inactive)	20%	95%	70% (inactive)					35%	20%			CC[C@@]1(c2cccc(C)c2)C(=O)N(C(=O)OC)N1C(=O)OC(C)C
0% (inactive)	0% (inactive)	0% (inactive)	0% (inactive)	10% (inactive)			0% (inactive)									CCC[C@@]1(c2cccc(C)c2)C(=O)N(C(=O)OC)N1C(=O)OC
0% (inactive)	0% (inactive)	0% (inactive)	10% (inactive)	70% (inactive)		10%	0% (inactive)									CC[C@@]1(c2cccc(C)c2)C(=O)N(C(=O)OC(C)(C)C)N1C(=O)OC(C)(C)C

Further lines, the molecule ahead of its results:

Structure (SMILES)	inhibition (APEH; at 10 µM)	inhibition (Kiaa1363; at 10 µM)	inhibition (Magl; at 10 µM)	inhibition ([1]; at 10 µM)	inhibition ([2]; at 10 µM)	inhibition ([2]; inhibition, at 0.1 µM)	inhibition ([2]; inhibition, at 1 µM)	inhibition ([3]; at 10 µM)	inhibition (APEH; inhibition, at 1 µM)	inhibition (Kiaa1363; inhibition, at 1 µM)	inhibition ([1]; inhibition, at 0.1 µM)	inhibition ([1]; inhibition, at 1 µM)	inhibition ([3]; inhibition, at 1 µM)	inhibition ([3]; inhibition, at 0.1 µM)	inhibition (APEH; inhibition, at 0.1 µM)	inhibition (Magl; inhibition, at 0.1 µM)
CC[C@@]1(c2cccc(Cl)c2)C(=O)N(C(=O)OC(C)C)N1C(=O)OC(C)C	65% (inactive)	75% (inactive)	45% (inactive)	70% (inactive)	100% (inactive)	40%	100%	95% (inactive)	30%	25%	15%	20%	50%			
Cc1cccc([C@]2(C)C(=O)N(C(=O)OC(C)C)N2C(=O)OC(C)C)c1	25% (inactive)	0% (inactive)	10% (inactive)	0% (inactive)	100%	55%	95%	40% (inactive)								
CC[C@@]1(c2ccc(C)cc2)C(=O)N(C(=O)OC(C)C)N1C(=O)OC(C)C	15% (inactive)	0% (inactive)	0% (inactive)	50% (inactive)	95%	90%	90%	75% (inactive)					30%			
CC[C@@]1(c2ccccc2)C(=O)N(C(=O)OC(C)C)N1C(=O)OC(C)C	85% (inactive)	0% (inactive)	0% (inactive)	65% (inactive)	100%	70%	90%	70% (inactive)	10%				10%		10%	
C=CCOC(=O)N1C(=O)[C@@](CC)(c2ccccc2)N1C(=O)OCC=C	55% (inactive)	35% (inactive)	50% (inactive)	80% (inactive)	100% (inactive)	30%	90%	70% (inactive)					10%			
CC[C@@]1(c2ccc(C)cc2)C(=O)N(C(=O)OC)N1C(=O)OC	20% (inactive)	15% (inactive)	10% (inactive)	25% (inactive)	100%	55%	95%	50% (inactive)					20%			
CC[C@@]1(c2ccc(Cl)c(Cl)c2)C(=O)N(C(=O)OC)N1C(=O)OC	55% (inactive)	0% (inactive)	10% (inactive)	0% (inactive)	90% (inactive)	20%	70%	25% (inactive)								
Cc1cccc([C@]2(C)C(=O)N(C(=O)OCc3ccccc3)N2C(=O)OCc2ccccc2)c1	0% (inactive)	0% (inactive)	0% (inactive)	0% (inactive)	15% (inactive)			0% (inactive)								
CC[C@@]1(c2ccccc2C)C(=O)N(C(=O)OC)N1C(=O)OC	55% (inactive)	25% (inactive)	10% (inactive)	40% (inactive)	90% (inactive)	20%	15%	70% (inactive)						20%		10%
CCCOC(=O)N1C(=O)[C@@](CC)(c2ccc(C)cc2)N1C(=O)OCCC	0% (inactive)	25% (inactive)	80% (inactive)	85% (inactive)	95%	95%	95%	65% (inactive)			10%	25%	25%			
CC[C@@]1(c2ccc(Cl)c(Cl)c2)C(=O)N(C(=O)OC(C)C)N1C(=O)OC(C)C	50% (inactive)	0% (inactive)	25% (inactive)	50% (inactive)	90% (inactive)	25%	90%	80% (inactive)								
